The record followed here is patent US11149036B2, “3-(1H-pyrazol-4-yl)pyridine allosteric modulators of the M4 muscarinic acetylcholine receptor” (Merck Sharp & Dohme Corp., priority 2017, dated 2021).

The structures appear in SMILES notation.

The target of this assay is T1, human M4 muscarinic acetylcholine receptor (Homo sapiens, UniProt P08173).
T1 construct: expressed in transfected cells; host or cells: CHO-K1
T1 sequence (P08173 1-479): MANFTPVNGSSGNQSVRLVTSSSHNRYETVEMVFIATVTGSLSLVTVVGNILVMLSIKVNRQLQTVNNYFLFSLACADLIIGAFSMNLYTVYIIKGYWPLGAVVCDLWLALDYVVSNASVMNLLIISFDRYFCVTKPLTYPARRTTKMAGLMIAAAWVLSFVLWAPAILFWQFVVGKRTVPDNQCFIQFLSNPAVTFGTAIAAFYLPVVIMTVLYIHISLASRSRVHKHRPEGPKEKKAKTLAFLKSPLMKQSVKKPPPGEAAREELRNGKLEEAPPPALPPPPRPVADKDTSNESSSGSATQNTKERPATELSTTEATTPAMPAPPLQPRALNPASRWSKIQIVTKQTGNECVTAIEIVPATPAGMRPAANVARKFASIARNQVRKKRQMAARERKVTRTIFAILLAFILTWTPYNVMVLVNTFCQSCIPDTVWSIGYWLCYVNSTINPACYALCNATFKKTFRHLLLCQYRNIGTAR
In words: human FLIPR-based M4 PAM assay (CHO-K1 cells with human M4 receptor and Gaqi5, calcium dye fluorescence). Conditions: inflection point (IP) of dose response curve, acetylcholine added at 20% of maximum response, read-out: M4 FLIPPR Hu IP. The assay is classed as cell-based. An outline of the steps: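 CHO-K1 cells stably expressing human M4 with chimeric Gaqi5, calcium-dye loaded ~1 h at 37° C; compound added at increasing concentrations 4 min before acetylcholine at an EC20 concentration (sometimes a further EC70 addition).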
Consider `Cc1ccc(-c2cnn(CC3(F)CCCC3)c2F)c(-c2cnc3c(c2)ncn3C)n1` [Example 23, 6-(3-(5-fluoro-1-((1-fluorocyclopentyl)methyl)-1H-pyrazol-4-yl)-6-methylpyridin-2-yl)-3-methyl-3H-imidazo[4,5-b]pyridine], for which the EC50 came out at 121 nM.

As to `COCc1nc2cc(-c3nc(C#N)ccc3-c3cnn(CC4(F)CCCC4)c3)ccn2n1` [Example 155, 5-(1-((1-fluorocyclopentyl)methyl)-1H-pyrazol-4-yl)-6-(2-(methoxymethyl)-[1,2,4]triazolo[1,5-a]pyridin-7-yl)picolinonitrile], the EC50 turned out to be 55 nM.

Take `CCc1nc2cc(-c3nc(C#N)ccc3-c3cnn(CC4(F)CCCC4)c3)ccn2n1` [Example 65, 6-(2-ethyl-[1,2,4]triazolo[1,5-a]pyridin-7-yl)-5-(1-((1-fluorocyclopentyl)methyl)-1H-pyrazol-4-yl)picolinonitrile]: the EC50 is 28 nM.

Consider `N#Cc1ccc(-c2cnn(CC3(F)CCCC3)c2)c(-c2ccn3c(Br)cnc3c2)n1` [Example 153, 6-(3-bromoimidazo[1,2-a]pyridin-7-yl)-5-(1-((1-fluorocyclopentyl)methyl)-1H-pyrazol-4-yl)picolinonitrile], for which the EC50 was determined as 23 nM.

For `COc1cc2ccc(-c3nc(Cl)c(C)cc3-c3cnn(CC4(C)CCCC4)c3)cc2nn1` [Example 119, 7-(6-chloro-5-methyl-3-(1-((1-methylcyclopentyl)methyl)-1H-pyrazol-4-yl)pyridin-2-yl)-3-methoxycinnoline], the EC50 came out at 5 nM.

For `CCc1cn2ccc(-c3nc(C#N)ccc3-c3cnn(CC4(F)CCCC4)c3)cc2n1` [Example 57, 6-(2-ethylimidazo[1,2-a]pyridin-7-yl)-5-(1-((1-fluorocyclopentyl)methyl)-1H-pyrazol-4-yl)picolinonitrile], the EC50 stood at 16 nM.

Turning to `Cc1cc(-c2cnn(CC3(C)CCCC3)c2)c(-c2ccn3ccnc3c2)nc1F` [Example 93, 7-(6-fluoro-5-methyl-3-(1-((1-methylcyclopentyl)methyl)-1H-pyrazol-4-yl)pyridin-2-yl)imidazo[1,2-a]pyridine], the EC50 was 34 nM.

Consider `Cn1cnc2cc(-c3nc(C#N)c(F)cc3-c3cnn(CC4(C)CCCC4)c3)cnc21` [Example 85, 3-fluoro-6-(3-methyl-3H-imidazo[4,5-b]pyridin-6-yl)-5-(1-((1-methylcyclopentyl)methyl)-1H-pyrazol-4-yl)picolinonitrile], for which the EC50 turned out to be 37 nM.

As to `CC1(Cn2cc(-c3ccc(C#N)nc3-c3ccn4cncc4c3)cn2)CCCC1` [Example 77, 6-(imidazo[1,5-a]pyridin-7-yl)-5-(1-((1-methylcyclopentyl)methyl)-1H-pyrazol-4-yl)picolinonitrile], the EC50 was 66 nM.

For `Cc1nnc2cc(-c3nc(C#N)c(F)cc3-c3cnn(CC4(F)CCCC4)c3)ccn12` [Example 90, 3-fluoro-5-(1-((1-fluorocyclopentyl)methyl)-1H-pyrazol-4-yl)-6-(3-methyl-[1,2,4]triazolo [4,3-a]pyridin-7-yl)picolinonitrile], the EC50 amounted to 42 nM.

On to `Cc1nc2cc(-c3nc(C#N)ccc3-c3cnn(CC4(F)CCCC4)c3)ccc2o1` [Example 49, 5-(1-((1-fluorocyclopentyl)methyl)-1H-pyrazol-4-yl)-6-(2-methylbenzo[d]oxazol-5-yl)picolinonitrile], for which the EC50 amounted to 107 nM.

Take `N#Cc1ccc(-c2cnn(CC3(F)CCCC3)c2)c(-c2ccn3nc(CO)nc3c2)n1` [Example 66, 5-(1-((1-fluorocyclopentyl)methyl)-1H-pyrazol-4-yl)-6-(2-(hydroxymethyl)-[1,2,4]triazolo[1,5-a]pyridin-7-yl)picolinonitrile]: the EC50 worked out at 89 nM.

Turning to `Cc1nc2cc(-c3nc(C#N)ccc3-c3cnn(CC4(F)CCCC4)c3)cnc2n1C` [Example 63, 6-(2,3-dimethyl-3H-imidazo[4,5-b]pyridin-6-yl)-5-(1-((1-fluorocyclopentyl)methyl)-1H-pyrazol-4-yl)picolinonitrile], the EC50 was found to be 63 nM.

In the case of `Cc1ccc(-c2cnn(CC3(F)CCCC3)c2)c(-c2ccc3cc(F)cnc3c2)n1` [Example 21, 3-fluoro-7-(3-(1-((1-fluorocyclopentyl)methyl)-1H-pyrazol-4-yl)-6-methylpyridin-2-yl)quinoline], the EC50 was 16 nM.

As for `Cn1cnc2cc(-c3nc(C(F)F)ccc3-c3cnn(C[C@@H]4CC[C@@H](F)C4)c3)ccc21` [Example 121, 5-(6-(difluoromethyl)-3-(1-(((1R,3R)-3-fluorocyclopentyl)methyl)-1H-pyrazol-4-yl)pyridin-2-yl)-1-methyl-1H-benzo[d] imidazole], the EC50 came out at 50 nM.

Take `Cn1nnc2cc(-c3nc(C#N)ccc3-c3cnn(CC4(C)CCCC4)c3)ccc21` [Example 124, 6-(1-methyl-1H-benzo[d][1,2,3]triazol-5-yl)-5-(1-((1-methylcyclopentyl)methyl)-1H-pyrazol-4-yl)picolinonitrile]: the EC50 is 27 nM.

Take `Cc1ccc(-c2cnn(CC3(F)CCCC3)c2)c(-c2ccc3c(c2)C(=O)N(C)C3)n1` [Example 1, 6-(3-(1-((1-fluorocyclopentyl)methyl)-1H-pyrazol-4-yl)-6-methylpyridin-2-yl)-2-methylisoindolin-1-one]: the EC50 stood at 17 nM.

In the case of `Cc1cn2ccc(-c3ncc(Cl)cc3-c3cnn(CC4(F)CCCC4)c3)cc2n1` [Example 110, 7-(5-chloro-3-(1-((1-fluorocyclopentyl)methyl)-1H-pyrazol-4-yl)pyridin-2-yl)-2-methylimidazo[1,2-a] pyridine], the EC50 was determined as 23 nM.

As to `N#Cc1ccc(-c2cnn(CC3C[C@@H](F)[C@H](F)C3)c2)c(-c2ccc3cccnc3c2)n1` [Example 84, 5-(1-(((3R,4R)-3,4-difluorocyclopentyl)methyl)-1H-pyrazol-4-yl)-6-(quinolin-7-yl)picolinonitrile], the EC50 is 33 nM.

In the case of `Cc1cn2ccc(-c3nc(C#N)ccc3-c3cnn(CC4(F)CCCC4)c3)cc2n1` [Example 3, 5-(1-((1-fluorocyclopentyl)methyl)-1H-pyrazol-4-yl)-6-(2-methylimidazo[1,2-a]pyridin-7-yl)picolinonitrile], the EC50 was determined as 12 nM.

Consider `Cc1nnc2cc(-c3nc(C#N)ccc3-c3cnn(CC4(F)CCCC4)c3)ccn12` [Example 44, 5-(1-((1-fluorocyclopentyl)methyl)-1H-pyrazol-4-yl)-6-(3-methyl-[1,2,4]triazolo [4,3-a]pyridin-7-yl)picolinonitrile], for which the EC50 was determined as 18 nM.
